{"source": "paper PMC3641831", "about": "(Biochemistry, 2010)", "tested_on": "poly(dA)•2poly(dT)", "test": "UV denaturation, triplex transition", "type": "binding", "data": [{"smiles": "c1cc2ccc3cccc4ccc(c1)c2c34", "note": "[Compound 5, reference compound]", "values": [{"measurement": "stabilization of DNA triplex", "result": "does not stabilize"}]}]}
